Legend:
[1] = biological target: T1, GPR3 (Homo sapiens, UniProt P46089, INS231ASEIGTGFPFDPHYVEVLGERMHYVDVGPRDGTPVLFLHGNPTSSYVWRNIIPHVAPTHRCIAPDLIGMGKSDKPDLGYFFDDHVRFMDAFIEALGLEEVVLVIHDWGSALGFHWAKRNPERVKGIAFMEFIRPIPTWDEWPEFARETFQAFRTTDVGRKLIIDQNVFIEGTLPMGVVRPLTEVEMDHYREPFLNPVDREPLWRFPNELPIAGEPANIVALVEEYMDWLHQSPVPKLLFWGTPGVLIPPAEAARLAKSLPNCKAVDIGPGLNLLQEDNPDLIGSEIARWLSTLEISGGS); experiment: BRET-based conformational GPR3 biosensor (GPR3-HaloTag/Nluc) in HEK293A cells; type: cell-based; conditions: for BRET response of GPR3 biosensor (direction, words): HEK293A
T1 construct: ligated to the full-length C-terminus; expressed in transfected cells; some experiments transient
Excerpt: To develop a conformational GPR3 biosensor that can be used in a microtiter well plate format, we employed the intramolecular BRET design previously validated for several GPCRs. − The BRET donor NanoLuc was fused to the receptor’s full-length C-terminus and the self-labeling protein tag, HaloTag, was inserted into GPR3′s third intracellular loop between amino acids Arg231 and His232 (Figure a; sequence in Figure S1). […]
Plasmids and molecular cloning […]
Plasmids encoding the conformational biosensors α2AAR- and β2AR-HaloTag/Nluc9 and the Gs heterotrimer dissociation sensor10 were previously described. The expression plasmid encoding N-terminally HA-tagged GPR3 (cat. no.
#GPR003TN00) on a pcDNA3.1+ vector was obtained from the cDNA resource center (cdna.org). The Nluc and HaloTag in-serts were amplified with overhanging restriction sites from β2AAR- HaloTag/Nluc and ligated to the full-length C-terminus or inserted into icl3 of GPR3, respectively, to obtain the conformational biosensor GPR3-HaloTag/Nluc. Point mutants of GPR3-HaloTag/Nluc were generated using the GeneArt Site-directed Mutagenesis System (Thermo Fisher Scientific). All con-structs were verified by sequencing (Eurofins genomics). […]
serum albumin (BSA) were obtained from Sigma Aldrich (Merck KGaA). Dulbecco's Modified Eagle's Medium (DMEM), Dul- […]
Diphenyleneiodonium chloride (DPI) and AF64394 were purchased from Tocris (Bio -Techne). The TMB (3, 3', 5, 5' tetramethyl benzidine) substrate reagent set was […]
were obtained in a single kit from Promega (cat. no. N1662). D-luciferin-sodium and the S1PR1 agonist III were from Med-ChemExpress. The Rluc substrate coelenterazine 400a was from NanoLight Technology (cat. no. 340 -10). White -wall, white - bottomed 96 -well, black -wall, black bottomed and transparent 96 -well microtiter plates were from Brand.
HEK293A cells were used for transient transfection and grown in Dulbecco’s modified Eagle’s medium (DMEM) supplemented with 2 mM glutamine, 10 % fetal calf serum, streptomycin (0.1 mg/mL), and penicillin (100 U/mL) at 37 °C with 5 % CO2. For the generation of stable GPR3 -HaloTag/Nluc cells, HEK293A cells grown in T75 flasks were transfected at a confluence of 40 – […]
Absence of mycoplasma contamination was routinely
(§1) Transient transfection and plating
Resuspended cells (300,000 cells/mL) were transfected in suspension with a total of 1 μg DNA/mL suspension using PEI (1 mg/ml stock solution; 3 μL PEI solution per μg DNA). […]
Cells mixed with the transfection reagents were seeded onto poly-D-lysine–precoated, 96-well plates and grown for 48 h at 37 °C with 5 % CO2. Stable α2AAR-, β2AR- or GPR3-HaloTag/Nluc expressing cells were seeded 24 h before the experi-ment at a density of 800,000 cells/mL into white 96-well plates. To monitor changes in BRET in with conformational GPCR […]
experiment. White plates were used for BRET and luminescence measurements, black plates for FRET experiments and trans-parent plates for absorbance-based quantification of receptor surface expression levels.

[2] = system: β2AR; experiment: β2AR-HaloTag/Nluc conformational biosensor (negative control) in HEK293A cells; type: cell-based, human; conditions: β2AR-HaloTag/Nluc as negative control; HEK293A stable
Protocol: Initially, all 93 molecules were tested for activity at the GPR3 biosensor at a concentration of 1 μM (Figure a). […] Of the five compounds that emerged from the virtual screen, three–hereafter referred to as virtual hit 1–3, VH1/2/3–were selected for in-house chemical synthesis (compounds 52, 93, and 115; cf. Scheme , Figure S6), providing compounds of ≥99% purity for hit validation (NMR spectra: Figures S7–S142; HPLC purity: Figures S143–S218). For VH1, the racemic mix, rac-VH1/52, was synthesized and used for testing. Compounds 52, VH2/93, and VH3/115 (Figure S6) were then validated with the GPR3 biosensor including β2AR-HaloTag/Nluc as a negative control.
BRET-based GPCR conformational sensor experiments
Cells expressing the conformational GPCR biosensors were grown for 24 h (stable cells) or 48 h (transiently transfected cells) in white 96-well plates and washed with 100 µl of HBSS. After washing, cells were incubated for 2 minutes with a 1/1000 solution of the furimazine stock solution (Promega; cat. no. N1662). Three baseline BRET reads were recorded and averaged prior to the addition of serial dilutions of ligands or veh icle control and subsequent BRET reads. All experiments were con-ducted at 37 °C. BRE T donor emission was quantified with a 470/80 nm monochromator. BRET acceptor emission was quan-tified using a 660/100 nm monochromator. Experiments were carried out using a CLARIOstar plate reader. […]
FRET and BRET ratios were defined as acceptor emission/donor emission. […] To quantify ligand-induced changes ΔFRET and ΔBRET were calculated for each well as a percent over basal ([(Ratiostim − Ratiobasal)/Ratiobasal] × 100). […]
Data from FRET/BRET experiments were fitted using a three-parameter fit. Z-factors expressing the high-throughput suita-bility were calculated with the following equation: […]
Commercially available chemicals and solvents were purchased from standard commercial suppliers (Merck (Darmstadt, Ger-many), Sigma-Aldrich (Munich, Germany), Acros Organics (Geel, Belgium), Alfa Aesar (Karlsruhe, Germany), abcr (Karlsruhe, Germany), BLD Pharmatech (Reinbek, Germany) or TCI Europe (Zwijndrecht, Belgium) and were used as received. Deuter-ated solvents for nuclear magnetic resonance (1H NMR and 13C NMR) spectra were purchased from Deutero GmbH (Kastel-laun, Germany). All reactions carried out with dry solvents were accomplished in dry flasks under nitrogen or argon atmos-phere. For the preparation of buffers, HPLC eluents, and stock solutions millipore water was used. […] The reactions were monitored by thin layer chromatography (TLC) on Merck silica gel 60 F254 aluminium sheets and spots were visualized under UV light at 254 nm, by potassium permanganate or ninhydrin staining. […]

[3] = biological target: T2, GPR3 (Homo sapiens, UniProt P46089); experiment: FRET/BRET cAMP biosensor in HEK293A cells cotransfected with GPR3; type: cell-based; conditions: cAMP biosensor; pcDNA vs GPR3 transfected HEK293A
T2 construct: host or cells: HEK293A, transient
Excerpt: With the first GPR3 ligands identified by using a conformational readout in our hands, we next wanted to understand whether these compounds could have been detected in a cAMP-based assay, which has been used extensively in the past to screen for GPR3 ligands. We therefore tested rac-VH1/52, VH2/93 and VH3/115 in cells expressing a cAMP biosensor.
3 Effect of rac-VH1/52, VH2/93 and VH3/115 on GPR3-dependent cAMP production. (a–c) Vehicle-corrected BRET changes induced by rac-VH1/52 (a), VH2/93 (b) or VH3/115 (c) in HEK293A cells transiently transfected with a cAMP BRET sensor along with pcDNA or GPR3. […] Statistical significance was tested using Two-Way ANOVA followed by Sidak multiple comparison (*: […]; **: p < 0.01). […]
Plasmids and molecular cloning
The H187-EPAC-FRET sensor7 was kindly provided by K. Jalink (The Netherlands Cancer Institute, Amsterdam, The Nether-lands). The BRET-based cAMP sensor CAMYEL8 was kindly provided by Laura Humphrys (University of Regensburg, Regens-burg, Germany). Plasmids encoding the conformational biosensors α2AAR- and β2AR-HaloTag/Nluc9 and the Gs heterotrimer dissociation sensor10 were previously described. The expression plasmid encoding N-terminally HA-tagged GPR3 (cat. no.
#GPR003TN00) on a pcDNA3.1+ vector was obtained from the cDNA resource center (cdna.org). The Nluc and HaloTag in-serts were amplified with overhanging restriction sites from β2AAR- HaloTag/Nluc and ligated to the full-length C-terminus or inserted into icl3 of GPR3, respectively, to obtain the conformational biosensor GPR3-HaloTag/Nluc. Point mutants of GPR3-HaloTag/Nluc were generated using the GeneArt Site-directed Mutagenesis System (Thermo Fisher Scientific). All con-structs were verified by sequencing (Eurofins genomics).
Poly-D-lysine, polyethylenimin hydrochloride (linear; average Mn 20 000; PEI) , […], LPA , forskolin, NECA and bovine serum albumin (BSA) were obtained from Sigma Aldrich (Merck KGaA). Dulbecco's Modified Eagle's Medium (DMEM), Dul-becco's Phosphate -Buffered Saline (DPBS) and G -418 (Geneticin) were from Gibco. Diphenyleneiodonium chloride (DPI) and AF64394 were purchased from Tocris (Bio -Techne). The TMB (3, 3', 5, 5' tetramethyl benzidine) substrate reagent set was from BioLegend. The Nluc substrate furimazine and the red fluorescen t HaloTag dye, HaloTag® NanoBRET® 618 Ligand, were obtained in a single kit from Promega (cat. no. N1662). D-luciferin-sodium and the S1PR1 agonist III were from Med-ChemExpress. The Rluc substrate coelenterazine 400a was from NanoLight Technology (cat. no. 340 -10). White -wall, white - bottomed 96 -well, black -wall, black bottomed and transparent 96 -well microtiter plates were from Brand.
HEK293A cells were used for transient transfection and grown in Dulbecco’s modified Eagle’s medium (DMEM) supplemented with 2 mM glutamine, 10 % fetal calf serum, streptomycin (0.1 mg/mL), and penicillin (100 U/mL) at 37 °C with 5 % CO2. […]
as §1
Resuspended cells (300,000 cells/mL) were transfected in suspension with a total of 1 μg DNA/mL suspension using PEI (1 mg/ml stock solution; 3 μL PEI solution per μg DNA). For cAMP experiments with FRET- or BRET-based sensors, resuspended cells were transfected with 500 ng pcDNA, wildtype GPR3 or GPR3-HaloTag/Nluc constructs along with 500 ng of the FRET-or BRET-based cAMP sensor per mL cell suspension. For cAMP experiments with GloSensor™ 22F, resuspended cells were transfected with 250 ng pcDNA or GPCR along with 500 ng of a 1:1 mix of pcDNA with the GloSensor™ 22F per mL cell sus-pension. Cells mixed with the transfection reagents were seeded onto poly-D-lysine–precoated, 96-well plates and grown for 48 h at 37 °C with 5 % CO2. Stable α2AAR-, β2AR- or GPR3-HaloTag/Nluc expressing cells were seeded 24 h before the experi-ment at a density of 800,000 cells/mL into white 96-well plates. To monitor changes in BRET in with conformational GPCR […]

T1 sequence (P46089 with tags, fused parts or gaps with the stated changes): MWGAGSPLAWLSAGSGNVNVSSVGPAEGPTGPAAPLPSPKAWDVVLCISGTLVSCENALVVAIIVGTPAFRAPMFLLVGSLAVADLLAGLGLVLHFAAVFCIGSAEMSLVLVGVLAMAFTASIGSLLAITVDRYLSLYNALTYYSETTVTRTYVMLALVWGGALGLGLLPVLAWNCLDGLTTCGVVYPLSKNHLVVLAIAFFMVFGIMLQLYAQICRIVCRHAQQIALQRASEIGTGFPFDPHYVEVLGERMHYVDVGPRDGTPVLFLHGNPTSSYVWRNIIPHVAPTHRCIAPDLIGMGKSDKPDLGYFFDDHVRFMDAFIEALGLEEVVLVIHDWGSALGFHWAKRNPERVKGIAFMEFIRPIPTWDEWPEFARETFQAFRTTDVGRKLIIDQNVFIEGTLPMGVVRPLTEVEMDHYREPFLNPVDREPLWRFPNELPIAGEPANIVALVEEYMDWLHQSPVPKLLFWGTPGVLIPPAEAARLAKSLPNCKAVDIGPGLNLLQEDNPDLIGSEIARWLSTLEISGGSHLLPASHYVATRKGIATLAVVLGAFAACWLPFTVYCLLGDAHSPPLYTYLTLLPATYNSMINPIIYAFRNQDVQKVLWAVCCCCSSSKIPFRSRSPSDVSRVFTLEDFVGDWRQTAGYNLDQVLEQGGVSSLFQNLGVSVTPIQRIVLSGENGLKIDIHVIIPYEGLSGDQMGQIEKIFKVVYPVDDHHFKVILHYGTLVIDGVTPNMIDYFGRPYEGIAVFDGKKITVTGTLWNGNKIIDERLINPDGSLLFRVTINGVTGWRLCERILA
T2 sequence (P46089 whole entry): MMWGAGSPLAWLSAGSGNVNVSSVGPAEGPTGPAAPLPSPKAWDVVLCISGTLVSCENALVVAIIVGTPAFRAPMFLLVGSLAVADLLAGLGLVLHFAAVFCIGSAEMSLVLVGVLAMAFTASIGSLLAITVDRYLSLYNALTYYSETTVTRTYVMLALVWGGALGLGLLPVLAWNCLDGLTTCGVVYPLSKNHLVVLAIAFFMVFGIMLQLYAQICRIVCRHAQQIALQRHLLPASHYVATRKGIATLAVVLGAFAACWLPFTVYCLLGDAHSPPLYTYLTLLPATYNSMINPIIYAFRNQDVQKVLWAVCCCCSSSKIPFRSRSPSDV

Row | SMILES | BRET response of GPR3 biosensor (direction, words) [1] | specificity of conformational response for GPR3 vs β2AR-HaloTag/Nluc [2] | GPR3-dependent change in cAMP [3] | EC50 ([1]; transiently expressing HEK293A cells, read-out: EC50 of BRET increase at conformational GPR3 biosensor) [nM]
1 | CCCCCCCC/C=C\CCCCCCCC(=O)NCCO [OEA, reference compound] | concentration-dependent decreases in BRET | – | – | –
2 | O=C(C1COc2ccccc2O1)N1CCC(Cn2cncn2)(C2CCCCC2)CC1 (stereo not shown) [compound 93] | – | concentration-dependent and GPR3-specific conformational changes | to a much lesser extent | –
3 | CC(C)Oc1cc(Cl)ccc1CNc1cc(-c2ccccc2)nc2ncnn12 [AF64394, reference compound] | time- and ligand-concentration-dependent increase in BRET | – | concentration-dependent reduction of cAMP | 161
4 | CCCCCCCC/C=C\CCCCCCCC(N)=O [oleamide, reference compound] | concentration-dependent decreases in BRET | – | – | –
